Results published in ChEMBL document CHEMBL4038315, “Identification of Peptidic Antagonists of Vascular Endothelial Growth Factor Receptor 1 by Scanning the Binding Epitopes of Its Ligands” (J Med Chem, 2017).
The source made the active and inactive calls. No cut-off for these calls is given here. Positions of bridges follow the written chain, without caps; N, C: chain ends. Residues, ends and D or L forms follow the SMILES beside them.

Each compound was assayed on HUVEC. Settings: Homo sapiens, 50 uM.
Description: Antiangiogenic activity in HUVEC assessed as inhibition of VEGF-A-induced tube formation at 50 uM preincubated for 15 mins prior to VEGF-A addition measured after 4 hrs by matrigel assay
In the case of `CSCC[C@@H]1NC(=O)[C@H](CC(C)C)NC(=O)[C@H](CCC(=O)O)NC(=O)[C@H](C(C)C)NC(=O)[C@H]([C@@H](C)O)NC(=O)[C@@H](NC(C)=O)CSSC[C@@H](C(N)=O)NC(=O)[C@@H]2CCCN2C(=O)[C@H](C(C)C)NC(=O)[C@H](CC(C)C)NC(=O)[C@H](CCC(N)=O)NC(=O)[C@H](CCCCN)NC(=O)[C@H](C)NC(=O)[C@H](C(C)C)NC(=O)[C@H]([C@@H](C)O)NC(=O)CNC1=O` (Ac-CTVELMGTVAKQLVPC-NH2; disulfide 1-16), the inhibition is reported as “Active”.
In the case of `CC[C@H](C)[C@@H]1NC(=O)[C@H](Cc2ccc(O)cc2)NC(=O)[C@H](CCC(=O)O)NC(=O)[C@H]([C@@H](C)CC)NC(=O)[C@H](CCC(=O)O)NC(=O)[C@H](CC(=O)O)NC(=O)[C@@H]2CCCN2C(=O)[C@H](Cc2ccc(O)cc2)NC(=O)[C@H](CCC(=O)O)NC(=O)[C@H](CCC(N)=O)NC(=O)[C@H](Cc2ccccc2)NC(=O)[C@@H](N)CSSC[C@@H](C(=O)N[C@@H](CCCCN)C(N)=O)NC1=O` (H-CFQEYPDEIEYICK-NH2; disulfide 1-13), the inhibition is reported as “Active”.
`CC[C@H](C)[C@@H]1NC(=O)[C@H](Cc2ccc(O)cc2)NC(=O)[C@H](CCC(=O)O)NC(=O)[C@H]([C@@H](C)CC)NC(=O)[C@H](CCC(=O)O)NC(=O)[C@H](CC(=O)O)NC(=O)[C@@H]2CCCN2C(=O)[C@H](Cc2ccc(O)cc2)NC(=O)[C@H](CCC(=O)O)NC(=O)[C@H](CCC(N)=O)NC(=O)[C@@H](N)CSSC[C@@H](C(=O)N[C@@H](CCCCN)C(N)=O)NC1=O` (H-CQEYPDEIEYICK-NH2; disulfide 1-12) was tested, and the inhibition was “Active”.
